Test results taken from ChEMBL document CHEMBL1671649, “Mutations in three distinct loci cause resistance to peptide deformylase inhibitors in Bacillus subtilis” (2009).
In brackets after ≈: the same amount, converted by molar mass.

How the values were obtained:
Assay type in all cases: functional
Bacillus subtilis [1] = test: Antimicrobial activity against Bacillus subtilis harboring fmt G118D mutant after 17 hrs by microtiter broth dilution method
Bacillus subtilis [2] = test: Antimicrobial activity against Bacillus subtilis harboring folD S71Q, S72Q and L73P mutant after 17 hrs by microtiter broth dilution method
Bacillus subtilis [3] = test: Antimicrobial activity against Bacillus subtilis harboring fmt H108R mutant after 17 hrs by microtiter broth dilution method
Bacillus subtilis [4] = test: Antimicrobial activity against Bacillus subtilis harboring fmt with base pair insertion at position 745 after 17 hrs by microtiter broth dilution method
Bacillus subtilis [5] = test: Antimicrobial activity against Bacillus subtilis harboring fmt P120L mutant after 17 hrs by microtiter broth dilution method
Bacillus subtilis [6] = test: Antimicrobial activity against Bacillus subtilis harboring fmt with 295 to 639 base pair deletion mutation after 17 hrs by microtiter broth dilution method
Bacillus subtilis [7] = test: Antimicrobial activity against Bacillus subtilis harboring fmt P113L mutant after 17 hrs by microtiter broth dilution method
Bacillus subtilis [8] = test: Antimicrobial activity against Bacillus subtilis harboring fmt with deletion mutation at base pair 119 after 17 hrs by microtiter broth dilution method
Bacillus subtilis [9] = test: Antimicrobial activity against Bacillus subtilis harboring fmt S110P mutant after 17 hrs by microtiter broth dilution method
Bacillus subtilis [10] = test: Antimicrobial activity against Bacillus subtilis harboring fmt AGA to TGA and R3stop mutation after 17 hrs by microtiter broth dilution method
Bacillus subtilis [11] = test: Antimicrobial activity against Bacillus subtilis harboring fmt R116C mutant after 17 hrs by microtiter broth dilution method
Bacillus subtilis [12] = test: Antimicrobial activity against Bacillus subtilis harboring glyA with deletion mutation of base pair 661 to 663 after 17 hrs by microtiter broth dilution method
Bacillus subtilis [13] = test: Antimicrobial activity against Bacillus subtilis harboring folD with deletion mutation of base pair 507 to 518 after 17 hrs by microtiter broth dilution method
Bacillus subtilis [14] = test: Antimicrobial activity against Bacillus subtilis harboring folD E17Q mutant after 17 hrs by microtiter broth dilution method
Bacillus subtilis [15] = test: Antimicrobial activity against Bacillus subtilis harboring fmt with deletion mutation at base pair 745 after 17 hrs by microtiter broth dilution method
Bacillus subtilis [16] = test: Antimicrobial activity against Bacillus subtilis harboring folD T184M mutant after 17 hrs by microtiter broth dilution method
Bacillus subtilis [17] = test: Antimicrobial activity against Bacillus subtilis harboring fmt R116P mutant after 17 hrs by microtiter broth dilution method

Which results are given for CCCCC[C@H](CC(=O)NO)C(=O)N[C@H](C(=O)N1CCC[C@H]1CO)C(C)C [ACTINONIN]?
MIC (Bacillus subtilis [1]): > 512 µg/mL; MIC (Bacillus subtilis [2]): > 512 µg/mL; MIC (Bacillus subtilis [3]): > 512 µg/mL; MIC (Bacillus subtilis [4]): 96 µg/mL (≈ 249 µM); MIC (Bacillus subtilis [5]): > 512 µg/mL; MIC (Bacillus subtilis [6]): > 512 µg/mL; MIC (Bacillus subtilis [7]): 96 µg/mL (≈ 249 µM); MIC (Bacillus subtilis [8]): 192 µg/mL (≈ 498 µM); MIC (Bacillus subtilis [9]): > 512 µg/mL; MIC (Bacillus subtilis [10]): 192 µg/mL (≈ 498 µM); MIC (Bacillus subtilis [11]): 48 µg/mL (≈ 125 µM); MIC (Bacillus subtilis [12]): > 512 µg/mL; MIC (Bacillus subtilis [13]): > 512 µg/mL; MIC (Bacillus subtilis [14]): 192 µg/mL (≈ 498 µM); MIC (Bacillus subtilis [15]): 96 µg/mL (≈ 249 µM); MIC (Bacillus subtilis [16]): 192 µg/mL (≈ 498 µM); MIC (Bacillus subtilis [17]): > 512 µg/mL
